Entries after “also recorded” stand apart in the source; their conditions may differ.
What was measured:
[1] = target: purified and modified human CYP17A1 (Homo sapiens, UniProt P05093); assay: Spectral assay for ligand binding; settings: for type of difference spectrum induced: UV-visible difference spectroscopy; for Kd: read-out: Ks (spectral binding constant), 200 nM CYP17A1, 0.1 M potassium phosphate pH 7.4, 20% glycerol, room temperature, means ± SE of 2-4 experiments
CYP17A1 = CYP17A1 inhibitor; statement in introduction, no reference given; cited from earlier work
[2] = target: T1, native human CYP17A1 enzyme in yeast microsomes (Homo sapiens, UniProt P05093); assay: CYP17A1 hydroxylase activity assay; format: biochemical; settings: for mode of inhibition: Lineweaver-Burk and Cornish-Bowden plots, progesterone hydroxylation
T1 sequence (P05093 1-508): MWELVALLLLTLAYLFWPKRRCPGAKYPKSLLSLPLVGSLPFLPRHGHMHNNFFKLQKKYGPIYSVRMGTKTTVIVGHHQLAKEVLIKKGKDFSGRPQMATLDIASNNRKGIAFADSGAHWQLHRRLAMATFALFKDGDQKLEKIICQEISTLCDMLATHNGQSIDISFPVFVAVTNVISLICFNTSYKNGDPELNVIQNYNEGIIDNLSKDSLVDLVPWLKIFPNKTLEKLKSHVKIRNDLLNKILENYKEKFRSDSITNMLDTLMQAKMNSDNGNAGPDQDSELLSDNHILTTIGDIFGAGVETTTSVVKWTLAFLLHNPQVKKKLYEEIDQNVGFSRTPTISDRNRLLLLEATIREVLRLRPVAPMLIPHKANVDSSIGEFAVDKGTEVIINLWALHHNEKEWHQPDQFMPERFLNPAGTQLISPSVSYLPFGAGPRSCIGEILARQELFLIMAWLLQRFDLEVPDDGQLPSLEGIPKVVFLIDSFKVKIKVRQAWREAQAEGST

In the case of `C[C@]12CC[C@H](O)CC1=CC[C@@H]1[C@@H]2CC[C@]2(C)C(c3cccnc3)=CC[C@@H]12` [Abiraterone, abiraterone, reference compound], the “type of difference spectrum induced” value [1] is listed as “type II difference spectrum”, the Kd [1] is listed as 2.6 ± 3.2 nM and the “potency relative to ketoconazole” value (CYP17A1) is listed as “about 20 times”. For the same molecule, the Ki [2] was 27 nM and the “mode of inhibition” value ([2]; listed as Abi) was “mixed-type inhibitors”.
For `C[C@]12CC[C@@H](O)C[C@@H]1CC[C@@H]1[C@@H]2CC[C@]2(C)C(c3cccnc3)=CC[C@@H]12` [Compound 5, 17-(3-pyridyl)-5α-androsta-16-ene-3α-ol], the “type of difference spectrum induced” value [1] was “type II difference spectrum”, the Ki [2] was 14 nM and the “mode of inhibition” value [2] was “mixed-type inhibitors; also recorded: mixed competitive-noncompetitive inhibition”.
With `C[C@]12CCC(=O)C[C@@H]1CC[C@@H]1[C@@H]2CC[C@]2(C)C(c3cccnc3)=CC[C@@H]12` [Compound 6, 17-(3-pyridyl)-5α-androsta-16-ene-3-one] the “type of difference spectrum induced” value [1] was “type II difference spectrum”, the Ki [2] was 7 nM and the “mode of inhibition” value [2] was “mixed-type inhibitors; also recorded: mixed competitive-noncompetitive inhibition”.
For `C[C@]12CCC(=O)C=C1CC[C@@H]1[C@@H]2CC[C@]2(C)C(c3cccnc3)=CC[C@@H]12` [Compound 11, 17-(3-pyridyl)androsta-4,16-dien-3-one], the “type of difference spectrum induced” value [1] was “type II difference spectrum”, the Ki [2] was 22 nM and the “mode of inhibition” value [2] was “mixed-type inhibitors; also recorded: mixed competitive-noncompetitive inhibition”.
For `C[C@]12CC[C@@H](O)C=C1CC[C@@H]1[C@@H]2CC[C@]2(C)C(c3cccnc3)=CC[C@@H]12` [Compound 13, 17-(3-pyridyl)androsta-4,16-dien-3α-ol], the “type of difference spectrum induced” value [1] was “type II difference spectrum”, the Kd [1] was 1660 ± 286 nM and the Ki [2] was 80 nM. The “mode of inhibition” value [2] was “primarily non-competitive inhibition; also recorded: non-competitive inhibitor; also recorded: primarily noncompetitive; also recorded: largely noncompetitive mode of inhibition” and the Type of inhibition ([2]; progesterone as substrate) was “N”.
